pIC50: −log10 of the molar value.
What was measured:
11β-HSD1 = molecular target: T1, 11β-HSD1 (Homo sapiens, UniProt P28845); experiment: Human Aortic Smooth Muscle Cell Assay (cortisone to cortisol conversion); format: cell-based; conditions: primary human aortic smooth muscle cells (AoSMC), hTNFα induced, cortisol immunoassay
T1 construct: assay medium containing 12 ng/mL hTNFα to induce expression of 11β-HSD1; endogenous in cells; host or cells: primary human aortic smooth muscle cells (AoSMC), induced with hTNFα
T1 sequence (P28845 whole entry): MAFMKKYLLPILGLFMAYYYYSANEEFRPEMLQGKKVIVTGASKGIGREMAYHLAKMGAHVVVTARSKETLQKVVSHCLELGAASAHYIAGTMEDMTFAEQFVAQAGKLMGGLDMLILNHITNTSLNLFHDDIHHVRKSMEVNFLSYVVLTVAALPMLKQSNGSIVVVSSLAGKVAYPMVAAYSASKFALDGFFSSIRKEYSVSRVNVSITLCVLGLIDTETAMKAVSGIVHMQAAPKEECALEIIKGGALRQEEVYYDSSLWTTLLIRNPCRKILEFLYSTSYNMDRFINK
Method: Human Aortic Smooth Muscle Cell Assay
Primary human aortic smooth muscle cells (AoSMC) are cultured in 5% FBS growth medium to a passage number of 6, then pelleted by centrifugation and resuspended at a density of 9×10^4 cells/mL in 0.5% FBS assay medium containing 12 ng/mL hTNFα to induce expression of 11β-HSD1. Cells are seeded into 96-well tissue culture assay plates at 100 μL/well (9×10^3 cells/well) and incubated for 48 hours at 37° C., 5% CO2. Following induction, cells are incubated for 4 hours at 37° C., 5% CO2 in assay medium containing test compounds then treated with 10 μL/well of 10 μM cortisone solubilized in assay medium, and incubated for 16 hours at 37° C., 5% CO2. Medium from each well is transferred to a plate for subsequent analysis of cortisol using a competitive fluorescence resonance time resolved immunoassay. In solution, an allophycocyanin (APC)-cortisol conjugate and free cortisol analyte compete for binding to a mouse anti-cortisol antibody/Europium (Eu)-anti mouse IgG complex. Higher levels of free cortisol result in diminishing energy transfer from the Europium-IgG to the APC-cortisol complex resulting in less APC fluorescence. Fluorescent intensities for Europium and APC are measured using a LJL Analyst AD. Europium and APC excitation is measured using 360 nm excitation and 615 nm and 650 nm emission filters respectively. Time resolved parameters for Europium were 1000 μs integration time with a 200 μs delay. APC parameters are set at 150 μs integration time with a 50 μs delay. Fluorescent intensities measured for APC are modified by dividing by the Eu fluorescence (APC/Eu). This ratio is then used to determine the unknown cortisol concentration by interpolation using a cortisol standard curve fitted with a 4-parameter logistic equation. These concentrations are then used to determine compound activity by plotting concentration versus % inhibition, fitting with a 4-parameter curve and reporting the IC50.

[1] = molecular target: recombinant human 11β-HSD type 1 enzyme (Homo sapiens, UniProt P28845); experiment: 11β-HSD Type 1 Enzyme Assay (NADPH fluorescence); format: biochemical; conditions: three hour incubation, read-out: Human 11-βHSD1 IC50
Sequence of recombinant human 11β-HSD type 1 enzyme (P28845 whole entry): as above
Method: 11β-HSD Type 1 Enzyme Assay
Human 11β-HSD type 1 activity is measured by assaying NADPH production by fluorescence assay. Solid compounds are dissolved in DMSO to a concentration of 10 mM. Twenty microliters of each are then transferred to a column of a 96-well polypropylene Nunc plate where they are further diluted 50-fold followed by subsequent two-fold titration, ten times across the plate with additional DMSO using a Tecan Genesis 200 automated system. Plates are then transferred to a Tecan Freedom 200 system with an attached Tecan Temo 96-well head and an Ultra 384 plate reader. Reagents are supplied in 96-well polypropylene Nunc plates and are dispensed individually into black 96-well Molecular Devices High Efficiency assay plates (40 μL/well capacity) in the following fashion: 9 μL/well of substrate (2.22 mM NADP, 55.5 μM Cortisol, 10 mM Tris, 0.25% Prionex, 0.1% Triton X100), 3 μL/well of water to compound wells or 3 μL to control and standard wells, 6 μL/well recombinant human 11β-HSD type 1 enzyme, 2 μL/well of compound dilutions. […] Plates are then shaken once more for 15 seconds then placed into an Ultra 384 microplate reader (355EX/460EM) for detection of NADPH fluorescence.

cortisone conversion = experiment: Acute In Vivo Cortisone Conversion Assay; conditions: male C57BL/6 mice, oral dose of 10 mg/kg, cortisone challenge after 16 hours, serum cortisol
Method: Acute In Vivo Cortisone Conversion Assay
In general, compounds are dosed orally into mice, the mice are challenged with a subcutaneous injection of cortisone at a set timepoint after compound injection, and the blood of each animal is collected some time later. Separated serum is then isolated and analyzed for levels of cortisone and cortisol by LC-MS/MS, followed by calculation of mean cortisol and percent inhibition of each dosing group. Specifically, male C57BL/6 mice are obtained from Harlan Sprague Dawley at average weight of 25 grams. Exact weights are taken upon arrival and the mice randomized into groups of similar weights. Compounds are prepared in 1% w-w HEC, 0.25% w-w polysorbate 80, 0.05% w-w Dow Corning antifoam #1510-US at various doses based on assumed average weight of 25 grams. Compounds are dosed orally, 200 μl per animal, followed by a subcutaneous dose, 200 μl per animal, of 30 mg/kg cortisone at 1 to 24 hours post compound dose. At 10 minutes post cortisone challenge, each animal is euthanized for 1 minute in a CO2 chamber, followed by blood collection via cardiac puncture into serum separator tubes. Once fully clotted, tubes are spun at 2500×g, 4° C. for 15 minutes, the serum transferred to wells of 96-well plates (Corning Inc, Costar #4410, cluster tubes, 1.2 ml, polypropylene), and the plates are frozen at −20° C. until analysis by LC-MS/MS. […]

Row | Compound | pIC50 (11β-HSD1) | pIC50 [1] | % Inhibition after 16 hours (dose of 10 (mg/kg)) (cortisone conversion) [%]
1 | O=C(c1ccc(-c2cc(Cl)c(CN3CCC4(CCCCC4)C3=O)c(Cl)c2)cc1)N1CCN(CCF)CC1 [Example 6, 2-{3,5-Dichloro-4′-[4-(2-fluoro-ethyl)-piperazine-1-carbonyl]-biphenyl-4-ylmethyl}-2-aza-spiro[4.5]decan-1-one] | 7.69 | 6.05 | 41.2
2 | O=C1N(Cc2c(Cl)cc(-c3ccc(F)cc3)cc2Cl)CCC12CCc1n[nH]cc1C2 (stereo not shown) [Example 14] | 7.67 | 6.26 | –
3 | O=C(c1ccc(-c2cc(Cl)c(CN3CCC4(CCCCC4)C3=O)c(Cl)c2)cc1)N1CCC(C(F)(F)F)CC1 [Example 5, 2-[3,5-Dichloro-4′-(4-trifluoromethyl-piperidine-1-carbonyl)-biphenyl-4-ylmethyl]-2-aza-spiro[4.5]decan-1-one] | 7.33 | – | 69.3

From US7968585B2, “Inhibitors of 11-beta-hydroxysteroid dehydrogenase 1” (Eli Lilly and Company, priority 2006, dated 2011)
